This note sets out measurements from article PMC8562569 (Nature cancer, 2021).

For this assay, the target named is PIKfyve (Homo sapiens, UniProt Q9Y2I7). Description: cellular thermal shift assay in VCaP cells, […], […] h. It counts as cell-based.
Chain of PIKfyve (Q9Y2I7 2-2098): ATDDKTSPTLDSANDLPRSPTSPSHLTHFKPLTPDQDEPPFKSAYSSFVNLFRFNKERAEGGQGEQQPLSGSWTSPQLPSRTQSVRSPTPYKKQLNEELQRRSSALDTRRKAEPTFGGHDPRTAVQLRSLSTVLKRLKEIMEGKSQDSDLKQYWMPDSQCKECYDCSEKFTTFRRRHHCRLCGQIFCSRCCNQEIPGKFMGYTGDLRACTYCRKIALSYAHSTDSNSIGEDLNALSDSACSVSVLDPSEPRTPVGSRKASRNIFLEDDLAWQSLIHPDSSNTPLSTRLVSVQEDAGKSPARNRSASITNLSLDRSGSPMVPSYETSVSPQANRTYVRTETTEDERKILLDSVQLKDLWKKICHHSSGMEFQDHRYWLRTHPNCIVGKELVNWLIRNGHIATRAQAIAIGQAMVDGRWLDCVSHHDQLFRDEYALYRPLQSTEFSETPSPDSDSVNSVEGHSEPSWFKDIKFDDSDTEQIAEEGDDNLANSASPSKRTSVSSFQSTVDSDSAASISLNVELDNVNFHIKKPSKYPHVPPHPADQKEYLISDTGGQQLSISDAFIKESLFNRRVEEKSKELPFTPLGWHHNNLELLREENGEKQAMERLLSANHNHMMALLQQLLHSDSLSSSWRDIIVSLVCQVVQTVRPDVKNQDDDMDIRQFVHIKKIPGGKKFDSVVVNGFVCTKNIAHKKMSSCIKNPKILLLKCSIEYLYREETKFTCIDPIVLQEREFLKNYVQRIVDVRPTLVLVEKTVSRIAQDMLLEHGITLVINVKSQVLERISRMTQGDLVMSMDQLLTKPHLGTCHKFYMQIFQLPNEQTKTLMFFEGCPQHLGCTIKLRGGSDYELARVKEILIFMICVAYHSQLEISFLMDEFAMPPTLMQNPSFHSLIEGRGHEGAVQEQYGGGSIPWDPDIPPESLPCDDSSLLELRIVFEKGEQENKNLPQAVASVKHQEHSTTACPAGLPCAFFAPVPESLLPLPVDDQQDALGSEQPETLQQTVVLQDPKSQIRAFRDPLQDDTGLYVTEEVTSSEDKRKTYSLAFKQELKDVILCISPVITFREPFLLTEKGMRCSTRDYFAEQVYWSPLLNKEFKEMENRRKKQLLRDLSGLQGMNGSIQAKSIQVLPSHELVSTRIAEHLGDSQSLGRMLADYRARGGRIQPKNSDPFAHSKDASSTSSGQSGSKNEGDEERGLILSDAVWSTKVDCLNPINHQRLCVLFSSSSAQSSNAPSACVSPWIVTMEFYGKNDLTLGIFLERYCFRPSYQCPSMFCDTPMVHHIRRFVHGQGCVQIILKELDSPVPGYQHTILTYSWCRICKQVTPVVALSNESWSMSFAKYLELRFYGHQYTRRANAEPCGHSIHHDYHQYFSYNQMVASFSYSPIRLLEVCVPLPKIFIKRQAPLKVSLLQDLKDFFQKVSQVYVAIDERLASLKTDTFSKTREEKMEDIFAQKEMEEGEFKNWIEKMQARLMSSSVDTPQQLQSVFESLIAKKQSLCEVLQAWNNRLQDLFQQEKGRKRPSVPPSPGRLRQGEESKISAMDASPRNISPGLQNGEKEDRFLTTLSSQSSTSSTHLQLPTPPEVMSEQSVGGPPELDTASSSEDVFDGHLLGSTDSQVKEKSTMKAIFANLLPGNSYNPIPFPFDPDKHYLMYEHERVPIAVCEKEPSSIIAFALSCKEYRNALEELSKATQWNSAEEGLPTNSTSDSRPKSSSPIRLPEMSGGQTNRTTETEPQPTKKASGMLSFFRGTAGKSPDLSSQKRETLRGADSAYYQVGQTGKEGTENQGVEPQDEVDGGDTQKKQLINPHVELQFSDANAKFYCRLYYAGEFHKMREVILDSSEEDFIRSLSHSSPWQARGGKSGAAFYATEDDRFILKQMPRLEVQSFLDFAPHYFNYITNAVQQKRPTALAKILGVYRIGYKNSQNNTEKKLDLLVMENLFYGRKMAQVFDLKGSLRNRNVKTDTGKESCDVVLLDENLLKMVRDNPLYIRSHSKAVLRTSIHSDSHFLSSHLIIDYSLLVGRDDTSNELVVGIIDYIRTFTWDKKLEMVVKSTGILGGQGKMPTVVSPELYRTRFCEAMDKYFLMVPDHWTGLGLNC

Regarding `Cc1cccc(/C=N/Nc2cc(N3CCOCC3)nc(OCCc3ccccn3)n2)c1` [apilimod], the “cellular thermal shift assay in VCaP cells, 1 μM, 2 h” value is given as “cellular thermal shift assay in VCaP cells, with the known PIKfyve inhibitor apilimod serving as a positive control”.
